# Read-outs that look alike come from different tables or passages of the source.
# Experiments:
# NaV1.8 [1] = target: T1, NaV1.8 (Homo sapiens, UniProt Q9Y5Y9); assay: Activity against NaV 1.8 channel (Table 4); type: cell-based
# Description: Compounds of the invention are useful as antagonists of voltage-gated sodium ion channels. Antagonist properties of test compounds were assessed as follows. Cells expressing the NaV of interest were placed into microtiter plates. After an incubation period, the cells were stained with fluorescent dyes sensitive to the transmembrane potential. The test compounds were added to the microtiter plate. The cells were stimulated with either a chemical or electrical means to evoke a NaV dependent membrane potential change from unblocked channels, which was detected and measured with trans-membrane potential-sensitive dyes. Antagonists were detected as a decreased membrane potential response to the stimulus. The optical membrane potential assay utilized voltage-sensitive FRET sensors described by Gonzalez and Tsien (See, Gonzalez, J. E. and R. Y. Tsien (1995) “Voltage sensing by fluorescence resonance energy transfer in single cells” Biophys J 69(4):1272-80, and Gonzalez, J. E. and R. Y. Tsien (1997) “Improved indicators of cell membrane potential that use fluorescence resonance energy transfer” Chem Biol 4(4): 269-77) in combination with instrumentation for measuring fluorescence change such as the Voltage/Ion Probe Reader (VIPR®) (See, Gonzalez, J. E., K. Oades, et al. (1999) “Cell-based assays and instrumentation for screening ion-channel targets” Drug Discov Today 4(9): 431-439).
# 24 hours before the assay on VIPR, CHO cells endogenously expressing a NaV 1.2 type voltage-gated NaV are seeded in 96-well poly-lysine coated plates at 60,000 cells per well. Other subtypes are performed in an analogous mode in a cell line expressing the NaV of interest.
# The following is an example of how NaV1.3 inhibition activity is measured using the optical membrane potential method#2. Other subtypes are performed in an analogous mode in a cell line expressing the NaV of interest.
# HEK293 cells stably expressing NaV1.3 are plated into 96-well microtiter plates. After an appropriate incubation period, the cells are stained with the voltage sensitive dyes CC2-DMPE/DiSBAC2(3) as follows.
# Patch clamp electrophysiology was used to assess the efficacy and selectivity of sodium channel blockers in dorsal root ganglion neurons. Rat neurons were isolated from the dorsal root ganglions and maintained in culture for 2 to 10 days in the presence of NGF (50 ng/ml) (culture media consisted of NeurobasalA supplemented with B27, glutamine and antibiotics). Small diameter neurons (nociceptors, 8-12 μm in diameter) have been visually identified and probed with fine tip glass electrodes connected to an amplifier (Axon Instruments). The “voltage clamp” mode has been used to assess the compound's IC50 holding the cells at −60 mV. In addition, the “current clamp” mode has been employed to test the efficacy of the compounds in blocking action potential generation in response to current injections. The results of these experiments have contributed to the definition of the efficacy profile of the compounds.
# TTX-resistant sodium currents were recorded from DRG somata using the whole-cell variation of the patch clamp technique. Recordings were made at room temperature (˜22° C.) with thick walled borosilicate glass electrodes (WPI; resistance 3-4 MΩ) using an Axopatch 200B amplifier (Axon Instruments). After establishing the whole-cell configuration, approximately 15 minutes were allowed for the pipette solution to equilibrate within the cell before beginning recording. Currents were lowpass filtered between 2-5 kHz and digitally sampled at 10 kHz. Series resistance was compensated 60-70% and was monitored continuously throughout the experiment. The liquid junction potential (−7 mV) between the intracellular pipette solution and the external recording solution was not accounted for in the data analysis. Test solutions were applied to the cells with a gravity driven fast perfusion system (SF-77; Warner Instruments). […]
# [2] = human, in vivo; cited from earlier work
# NaV1.6 = NaV1.6 (Homo sapiens, UniProt Q9UQD0); settings: read-out: TTX IC50; cited from earlier work
# NaV1.8 [3] = target: T1, NaV1.8; settings: read-out: TTX IC50; cited from earlier work
# NaV1.2 = NaV1.2 (Homo sapiens, UniProt Q99250); settings: read-out: TTX IC50; cited from earlier work
# NaV1.3 = NaV1.3 (Homo sapiens, UniProt Q9NY46); settings: read-out: TTX IC50; cited from earlier work
# NaV1.1 = NaV1.1 (Homo sapiens, UniProt P35498); settings: read-out: TTX IC50; cited from earlier work
# NaV1.9 = NaV1.9 (Homo sapiens, UniProt Q9UI33); settings: read-out: TTX IC50; cited from earlier work
# Sequence of NaV1.9 (Q9UI33 whole entry, looked up): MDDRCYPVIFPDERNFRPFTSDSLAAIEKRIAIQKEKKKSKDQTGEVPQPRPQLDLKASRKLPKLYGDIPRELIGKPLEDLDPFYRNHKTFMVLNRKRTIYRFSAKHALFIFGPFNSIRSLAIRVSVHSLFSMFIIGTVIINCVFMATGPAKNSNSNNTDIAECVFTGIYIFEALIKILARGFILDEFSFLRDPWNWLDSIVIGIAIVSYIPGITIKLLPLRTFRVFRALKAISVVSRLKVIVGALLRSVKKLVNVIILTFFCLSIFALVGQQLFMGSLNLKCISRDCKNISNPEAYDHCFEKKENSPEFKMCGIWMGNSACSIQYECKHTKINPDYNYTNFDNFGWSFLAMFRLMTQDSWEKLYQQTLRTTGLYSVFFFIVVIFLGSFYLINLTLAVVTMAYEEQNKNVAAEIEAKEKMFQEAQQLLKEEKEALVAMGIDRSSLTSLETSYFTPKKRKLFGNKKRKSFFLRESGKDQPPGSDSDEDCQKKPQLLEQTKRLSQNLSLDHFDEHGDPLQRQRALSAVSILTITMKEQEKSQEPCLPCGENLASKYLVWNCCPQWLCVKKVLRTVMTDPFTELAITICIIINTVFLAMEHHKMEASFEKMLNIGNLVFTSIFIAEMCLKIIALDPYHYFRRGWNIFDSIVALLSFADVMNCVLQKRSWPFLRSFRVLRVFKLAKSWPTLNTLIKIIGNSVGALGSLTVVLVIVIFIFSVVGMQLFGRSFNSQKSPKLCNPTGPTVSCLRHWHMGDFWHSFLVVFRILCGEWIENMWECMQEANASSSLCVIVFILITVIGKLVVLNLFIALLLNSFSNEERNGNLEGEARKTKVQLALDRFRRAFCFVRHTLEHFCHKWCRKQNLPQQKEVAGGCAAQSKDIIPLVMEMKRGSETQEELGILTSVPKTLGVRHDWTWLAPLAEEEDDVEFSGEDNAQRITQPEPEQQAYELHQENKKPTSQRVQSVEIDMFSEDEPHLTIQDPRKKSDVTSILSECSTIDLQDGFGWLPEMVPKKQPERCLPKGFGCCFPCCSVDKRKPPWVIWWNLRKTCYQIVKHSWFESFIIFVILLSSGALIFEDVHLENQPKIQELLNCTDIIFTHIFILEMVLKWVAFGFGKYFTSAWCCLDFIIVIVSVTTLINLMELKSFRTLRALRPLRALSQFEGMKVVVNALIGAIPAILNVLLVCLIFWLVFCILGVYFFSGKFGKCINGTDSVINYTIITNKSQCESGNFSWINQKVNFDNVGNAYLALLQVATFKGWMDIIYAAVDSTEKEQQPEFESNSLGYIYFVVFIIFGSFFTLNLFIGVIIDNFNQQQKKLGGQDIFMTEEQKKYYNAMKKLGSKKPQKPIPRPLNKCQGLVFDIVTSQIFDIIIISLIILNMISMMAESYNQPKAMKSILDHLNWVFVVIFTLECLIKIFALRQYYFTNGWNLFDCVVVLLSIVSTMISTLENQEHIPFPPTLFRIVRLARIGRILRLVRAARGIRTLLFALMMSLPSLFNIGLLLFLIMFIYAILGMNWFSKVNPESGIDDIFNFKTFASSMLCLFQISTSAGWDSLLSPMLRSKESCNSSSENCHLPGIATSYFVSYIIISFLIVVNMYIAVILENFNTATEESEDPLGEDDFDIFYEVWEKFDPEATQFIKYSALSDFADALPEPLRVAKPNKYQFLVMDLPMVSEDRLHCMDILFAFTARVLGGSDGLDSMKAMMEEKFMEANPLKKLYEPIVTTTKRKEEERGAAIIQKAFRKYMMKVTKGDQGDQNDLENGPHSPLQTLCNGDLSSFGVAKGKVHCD
# Sequence of NaV1.6 (Q9UQD0 whole entry, looked up): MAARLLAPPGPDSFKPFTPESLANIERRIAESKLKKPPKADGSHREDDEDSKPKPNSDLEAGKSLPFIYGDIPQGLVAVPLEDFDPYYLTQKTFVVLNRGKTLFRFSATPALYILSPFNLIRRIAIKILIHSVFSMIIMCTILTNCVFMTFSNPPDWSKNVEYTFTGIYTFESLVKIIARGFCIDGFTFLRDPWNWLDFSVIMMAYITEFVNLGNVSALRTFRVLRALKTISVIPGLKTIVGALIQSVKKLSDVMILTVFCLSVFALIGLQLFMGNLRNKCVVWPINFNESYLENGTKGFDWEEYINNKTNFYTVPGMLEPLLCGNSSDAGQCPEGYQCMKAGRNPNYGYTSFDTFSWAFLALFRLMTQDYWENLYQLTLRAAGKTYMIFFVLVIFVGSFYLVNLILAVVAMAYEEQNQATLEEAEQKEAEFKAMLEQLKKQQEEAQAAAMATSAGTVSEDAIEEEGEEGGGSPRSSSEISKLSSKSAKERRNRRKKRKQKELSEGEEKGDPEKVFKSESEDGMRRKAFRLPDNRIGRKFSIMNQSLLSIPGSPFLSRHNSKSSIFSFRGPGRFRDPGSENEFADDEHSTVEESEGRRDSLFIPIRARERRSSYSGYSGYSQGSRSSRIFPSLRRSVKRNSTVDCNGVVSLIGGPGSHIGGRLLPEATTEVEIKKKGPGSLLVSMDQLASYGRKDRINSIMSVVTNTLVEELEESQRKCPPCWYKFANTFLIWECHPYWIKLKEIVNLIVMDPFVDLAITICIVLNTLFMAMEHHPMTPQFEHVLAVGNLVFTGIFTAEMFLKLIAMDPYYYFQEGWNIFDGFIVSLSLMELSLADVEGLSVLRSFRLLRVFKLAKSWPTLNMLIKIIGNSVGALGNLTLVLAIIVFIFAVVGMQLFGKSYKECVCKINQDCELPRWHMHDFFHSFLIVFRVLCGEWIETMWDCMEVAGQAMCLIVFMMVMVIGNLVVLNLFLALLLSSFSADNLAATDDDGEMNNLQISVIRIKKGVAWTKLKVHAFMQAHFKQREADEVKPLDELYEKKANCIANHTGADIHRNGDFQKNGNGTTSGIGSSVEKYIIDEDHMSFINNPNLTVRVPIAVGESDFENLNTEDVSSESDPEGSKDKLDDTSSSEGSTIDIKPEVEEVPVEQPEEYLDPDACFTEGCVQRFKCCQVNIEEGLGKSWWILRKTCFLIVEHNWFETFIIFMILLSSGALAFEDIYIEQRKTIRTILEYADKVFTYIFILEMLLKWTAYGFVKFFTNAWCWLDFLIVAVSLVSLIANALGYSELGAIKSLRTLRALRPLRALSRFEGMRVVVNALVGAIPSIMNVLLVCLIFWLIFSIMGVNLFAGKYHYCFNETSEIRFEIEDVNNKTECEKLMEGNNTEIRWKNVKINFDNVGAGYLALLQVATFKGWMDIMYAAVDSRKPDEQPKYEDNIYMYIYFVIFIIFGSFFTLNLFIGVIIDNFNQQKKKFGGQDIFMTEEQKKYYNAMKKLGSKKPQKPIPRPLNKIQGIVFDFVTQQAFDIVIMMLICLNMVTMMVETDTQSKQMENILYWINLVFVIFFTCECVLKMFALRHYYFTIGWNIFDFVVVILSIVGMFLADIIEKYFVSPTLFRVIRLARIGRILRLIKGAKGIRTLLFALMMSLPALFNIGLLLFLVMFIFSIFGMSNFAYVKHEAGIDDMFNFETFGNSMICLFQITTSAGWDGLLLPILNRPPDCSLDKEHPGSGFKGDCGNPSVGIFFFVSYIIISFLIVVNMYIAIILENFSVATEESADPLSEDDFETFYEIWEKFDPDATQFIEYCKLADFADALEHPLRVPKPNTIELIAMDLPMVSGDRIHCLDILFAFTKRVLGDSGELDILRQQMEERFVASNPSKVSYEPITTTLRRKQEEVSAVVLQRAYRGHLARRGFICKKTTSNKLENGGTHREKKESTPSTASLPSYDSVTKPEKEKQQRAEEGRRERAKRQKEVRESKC
structure (smiles),measurement,setting,value
"Oc1ccccc1-c1nc(N2CCOCC2)c2sc(-c3ccc(F)cc3)cc2n1 [Compound 1, 2-(6-(4-Fluorophenyl)-4-morpholinothieno[3,2-d]pyrimidin-2-yl)phenol]",IC50,NaV1.8 [1],> 20 µM
Cc1cc(C)c2c(n1)sc1c(N3CCOCC3)nc(-c3ccccc3O)nc12 [Compound 2],IC50,NaV1.8 [1],> 20 µM
"Cc1csc2nc(-c3ccccc3O)nc(N3CCN(C(=O)OCC(C)C)CC3)c12 [Compound 4, Isobutyl 4-(2-(2-hydroxyphenyl)-5-methylthieno[2,3-d]pyrimidin-4-yl)piperazine-1-carboxylate]",IC50,NaV1.8 [1],> 20 µM
"CCCCS(=O)(=O)N1CCN(c2nc(-c3ccccc3O)nc3scc(C)c23)CC1 [Compound 5, 2-(4-(4-(butylsulfonyl)piperazin-1-yl)-5-methylthieno[2,3-d]pyrimidin-2-yl)phenol]",IC50,NaV1.8 [1],> 20 µM
"Cc1csc2nc(-c3ccccc3O)nc(N3CCC(NC(=O)OCC(C)C)CC3)c12 [Compound 6, Isobutyl 1-(2-(2-hydroxyphenyl)-5-methylthieno[2,3-d]pyrimidin-4-yl)piperidin-4-ylcarbamate]",IC50,NaV1.8 [1],> 20 µM
"CC(C)COC(=O)N1CCN(c2nc(-c3ccccc3O)nc3ccsc23)CC1 [Compound 7, Isobutyl 4-(2-(2-hydroxyphenyl)thieno[3,2-d]pyrimidin-4-yl)piperazine-1-carboxylate]",IC50,NaV1.8 [1],< 5 µM
"CC(C)COC(=O)NC1CCN(c2nc(-c3ccccc3O)nc3ccsc23)CC1 [Compound 8, Isobutyl 1-(2-(2-hydroxyphenyl)thieno[3,2-d]pyrimidin-4-yl)piperidin-4-ylcarbamate]",IC50,NaV1.8 [1],< 5 µM
NCC1(CC(=O)O)CCCCC1 [Gabapentin],patients in whom it works,[2],60%
"NC1=N[C@H](O)[C@H]2[C@H]3O[C@]4(O)O[C@@H]([C@@H](O)[C@@]2(N1)[C@@H]4O)[C@]3(O)CO [TTX, tetrodotoxin]",IC50,NaV1.6,0.006 µM
same,IC50,NaV1.8 [3],> 50 µM
same,IC50,NaV1.2,0.01 µM
same,IC50,NaV1.3,0.015 µM
same,IC50,NaV1.1,0.01 µM
same,IC50,NaV1.9,1 µM

# — patent US8883781B2, “Thienopyrimidines useful as modulators of ion channels” (Vertex Pharmaceuticals Incorporated, priority 2006, dated 2014)
